Data from patent publication EP0714404B1, “ANTI-INFLAMMATORY PEPTIDES” (CURATIVE TECHNOLOGIES, INC., priority 1993, dated 1995).
Read-outs that look alike come from different tables or passages of the source. Residues, ends and D or L forms follow the SMILES beside them.

What was measured:
acute toxicity in mice = format: in vivo; conditions: intravenous 100, 500 or 1,000 mg/kg
Procedure: Acute toxicity of CT-112 (SEQ. ID NO: 1) in mice and rats was assessed. Mice were dosed by intravenous injection with CT-112 (SEQ. ID NO: 1) at 100, 500 or 1,000 mg/kg.

[1] = tested on: collagen-induced arthritis; format: in vivo, Mice
Procedure: Mice (DBA/1, 10-12 weeks old, Jackson Laboratories) were randomly assigned to one of 3 groups of […]. CT-112 (SEQ. ID NO: 1) was prepared for injection by dissolving in sterile PBS. CT-112 (SEQ. ID NO: 1) was administered daily according to the following schedule: • a) Control animals (0.1 ml of sterile PBS) (7 mice); • b) Low dose CT-112 (0.1 ml sterile PBS containing 0.25 mg CT-112 at 10 mg/kg) (8 mice); and • c) High dose CT-112 (0.1 ml sterile PBS containing 2.5 mg of CT-112 at 100 mg/kg) (8 mice). Three days after initial dosing with CT-112 (SEQ. ID NO: 1), all mice were injected intradermally at the base of the tail with 100 µg of bovine type-II collagen in Freund's complete adjuvant. Mice were monitored daily for the onset of disease, and weighed twice weekly with overall health status noted. Arthritis-affected animals were clinically assessed 5 times per week until 10 weeks post-immunization. Paw measurements were taken 3 times per week. Mice lacking signs of arthritis 10 weeks post-immunization were considered disease-free. All mice were pre-bled prior to the start of the trial, subsequently again at 2 and 4 weeks post-immunization, again at the onset of CIA, and finally at the termination of the study. Sera were separated and stored at -80°C. ELISA assays were performed to determine anti-collagen antibody concentrations. Spleen and lymph nodes were removed at sacrifice, and single cell suspensions prepared therefrom. Mitogen responses to Con A and LPS, as well as antigen-specific responses to type-II collagen, were determined. Appropriate statistical comparisons (Chi square, Student's T-test and non-parametric median comparisons) were performed using SPSS/PC software to assess the influence of CT-112 (SEQ. ID NO: 1) at both low and high doses on the incidence, onset, severity and progression of collagen-induced arthritis, the antibody response to collagen, T-cell and B-cell mitogen responses, and T-cell specific responses to type-II collagen.

Inflammatory Cell Influx = experiment: carrageenan-induced model of peritonitis, inflammatory cell influx; format: in vivo, Mice; conditions: pump 60 mg CT-112/kg/day
Procedure: Mice (C57BL/6UAF, females, 12 weeks old) were implanted with Alzet mini pumps set to deliver 60 mg CT-112/kg/day. Six days post-implantation, the mice were challenged with an intraperitoneal injection of 0.3 ml of carrageenan in PBS (10 mg/ml). The peritoneal cavity was lavaged with 15 ml of Hank's Balanced Salt Solution (Ca^2+- and Mg^2+-free) at 24, 48 and 72 hr post-challenge. The lavage fluid was centrifuged (500 g, 5 min), fixed with LeukoStat fixative and stained with LeukoStat staining solution. The slides were analyzed under a microscope for the different types of inflammatory cells, such as macrophages, lymphocytes and neutrophils. At the 48-hr time point, 5 control mice were also lavaged.

Salmonella = Salmonella reverse mutation assay; format: cell-based; conditions: 100-5,000 µg/ml, with or without rat liver microsomal enzyme activation
From the text: The mutagenic potential of CT-112 (SEQ. ID NO: 1) has been assessed.

neutrophils = experiment: neutrophil chemotaxis to leukotriene B4 (Neuroprobe chambers); format: cell-based; conditions: fluorescence at 530 nm, 1 hr; FIGURE 4
Procedure: The ability of CT-112 (SEQ. ID NO: 1) to inhibit chemotaxis of neutrophils in response to a variety of agents was assessed using Neuroprobe chemotaxis chambers. For these assays, neutrophils were resuspended in Hank's balanced salt solution with Ca^2+ and Mg^2+ to give a 5 x 10^6 cells/ml suspension after the cells were labeled with 1',7'-bis(2-carboxyethyl)-5-(6)-carboxyfluorescein. The neutrophils were exposed to CT-112 (SEQ. ID NO: 1) for approximately 15 min prior to addition to the chemotaxis chambers. CT-112 (SEQ. ID NO: 1) was present in both the top and bottom of the chambers, and the chemoattractant, either f-Met-Leu-Phe, leukotriene B4 or interleukin-8, was added to the bottom of chamber. Cells which had migrated through the membrane were determined by fluorescence at 530 nm at 1 hr after initiation of the assay.

CC(C)[C@H](NC(=O)[C@H](CCC(N)=O)NC(=O)[C@H](CO)NC(=O)[C@@H](NC(=O)[C@@H](N)[C@@H](C)O)[C@@H](C)O)C(=O)N[C@@H](CCCNC(=N)N)C(=O)N1CCC[C@H]1C(=O)N[C@@H](CCCNC(=N)N)C(=O)O [CT-112, Thr-Thr-Ser-Gln-Val-Arg-Pro-Arg] (H-TTSQVRPR-OH)
lesions at necropsy (acute toxicity in mice): No lesions were visible
mean body weight or mean body weight gain (acute toxicity in mice; control vs treated): no statistical differences
clinical effects (acute toxicity in mice; one mouse at 500 and two at 1,000 mg/kg, day of treatment): Minimal transient clinical effects (hypoactivity and hypersensitivity)
Antibody reduction (anti-collagen antibody titer in mouse serum) ([1]; 4 wks post-immunization, high dose group, p=0.028): statistically significant
effects on synovitis and pannus ([1]; both high and low doses): not significant
disease-induced joint erosion (histopathology) ([1]; both high and low doses, FIGURE 13): reducing
disease-induced loss of joint architecture (histopathology) ([1]; both high and low doses, p ≤ 0.05, FIGURE 13): significantly reducing
Spleen cell response to Con A and to LPS ([1]; cells from treated mice): neither immunosuppression nor immunoactivation
final incidence of CIA ([1]; high dose, 100 mg/kg daily): 50%
onset of arthritis ([1]; low (10 mg/kg) and high (100 mg/kg) daily doses, compared to control mice): somewhat retarded
antibody titers at the conclusion of the trial ([1]; low dose group vs control mice): significantly higher
final incidence of CIA ([1]; low dose, 10 mg/kg daily): 62.5%
involved paws characterized as in remission at the conclusion of the trial ([1]; low dose, 10 mg/kg daily): 25%
progression of arthritis to paws ([1]; low dose, 10 mg/kg daily, p=0.035 vs control): significantly fewer paws
Maximum paw swelling ([1]; mouse, in vivo): not influenced
weight gain ([1]; mouse, in vivo): gained weight at the same rate
Cellular responses to mitogens and antigen (type-II collagen) in lymph node cells ([1]; treated mice vs control animals): similar
Absolute Cell Number Lymphocytes (Inflammatory Cell Influx; 24 hr post carrageenan): 16.9 ± 5.9
Absolute Cell Number Macrophages (Inflammatory Cell Influx; 24 hr post carrageenan): 19.5 ± 10
Absolute Cell Number Neutrophils (Inflammatory Cell Influx; 24 hr post carrageenan): 106 ± 29
Absolute Cell Number Lymphocytes (Inflammatory Cell Influx; 48 hr post carrageenan): 12.5 ± 7.6
Absolute Cell Number Macrophages (Inflammatory Cell Influx; 48 hr post carrageenan): 126 ± 43
Absolute Cell Number Neutrophils (Inflammatory Cell Influx; 48 hr post carrageenan): 134 ± 77
Absolute Cell Number Lymphocytes (Inflammatory Cell Influx; 72 hr post carrageenan): 45.1 ± 42
Absolute Cell Number Macrophages (Inflammatory Cell Influx; 72 hr post carrageenan): 255 ± 125
Absolute Cell Number Neutrophils (Inflammatory Cell Influx; 72 hr post carrageenan): 48.4 ± 28
number of revertants (histidine independent growth) (Salmonella): did not cause an increase
chemotactic migration of neutrophils to LTB4 (neutrophils): effectively inhibited
